Data set [1] concerns airway smooth muscle cells. As to the kind of experiment: Cytotoxicity: lactate dehydrogenase activity in cell supernatants. It is filed as cell-based, rat. To be noted: confluent cells incubated 24 hours; compared with DMSO vehicle (Figure 4B). How it is done: To study the effect of DHEA and 16α-BrEA on activation of AP-1, a secondary response important in cellular growth and proliferation (Angel and Karin, (1991), supra) confluent monolayers of airway smooth muscle in 75-cm^2 Petri dishes were growth arrested for 24 hours in 0.5% FBS and DMEM and pretreated 2 hours with DHEA, 16α-BrEA or DMSO vehicle. Cells were then stimulated with 10% FBS in DMEM for 6 hours, nuclear protein was harvested, and electrophoretic mobility shift assays were performed as described below to determine if treatment with DHEA and 16α-BrEA impaired DNA binding of AP-1. Measurement of Cytotoxicity and Apoptosis. To assess for cytotoxicity, DHEA or 16α-BrEA were added to wells of airway smooth muscle cells previously grown to confluence in DMEM and 10% FBS. After 24 hours, media was microfuged 5 minutes and supernatant was assayed for lactate dehydrogenase activity using a commercially available assay (DG-1340K from Sigma). Cells were washed twice in DPBS and exposed to trypan blue dye (0.04% in Hanks' balanced salt solution). Cell counts were performed in five random fields using a 0.01-cm^2 ocular grid to quantitate the average number of damaged or dead cells that accumulated dye. […]

Data set [2] deals with c-fos. As to the kind of experiment: Expression of c-fos protein (immunoblot) and mRNA (RT-PCR) after FBS stimulation. It is filed as cell-based, rat. To be noted: pretreated 2 hours with 10 µM (Figures 7A-7C). The method, then:
To determine if 16α-BrEA impaired expression of early response genes important for cellular proliferation, confluent 75-cm^2 Petri dishes of airway smooth muscle cells were growth arrested by incubation for 24 hours in DMEM with 0.5% FBS. Monolayers were pretreated 2 hours with 10 µM 16α-BrEA or DMSO vehicle, and stimulated by exposure to DMEM with 10% FBS for 30 minutes. Cells were then lysed and c-fos mRNA was measured by the reverse transcriptase-polymerase chain reaction, as described below. To study whether levels of c-fos protein were affected, confluent monolayers on 6-well plates were growth arrested for 24 hours in DMEM with 0.5% FBS. Cells were then pretreated 2 hours with 16α-BrEA or DMSO vehicle and stimulated with 10% FBS in DMEM for 15, 30 and 60 minutes. Cells were then lysed and c-fos protein was assayed by immunoblotting as described below.
For measurement of c-fos protein, monolayers were placed on ice, washed twice with cold DPBS, scraped into 0.5 ml boiling buffer (10% [vol/vol] glycerol and 2% [wt/vol] sodium dodecyl sulfate [SDS] in 83 mM Tris, pH 6.8) and sonicated. Aliquots were removed for protein determination, bromophenol blue and β-mercaptoethanol were added and lysates were boiled and stored as outlined above. […]

Data set [3] addresses T1, Human Erythrocyte G6PDH (Homo sapiens, UniProt P11413).
T1 construct: purified G6PDH from human erythrocytes; purchased Sigma Type XXVI; host or cells: human erythrocytes (natural source)
Nature of the data set: Inhibition of purified glucose 6-phosphate dehydrogenase activity. Format: biochemical. The following applies: 0.01 U/ml Type XXVI G6PDH from human erythrocytes, vs DMSO vehicle-treated controls, read-out: PERCENT INHIBITION OF GLUCOSE 6-PHOSPHATE DEHYDROGENASE ACTIVITY

Data set [4] relates to guinea pig main bronchi. As to the kind of experiment: Bronchial smooth muscle contraction in vitro (isolated bronchial rings, isometric tension).
Procedure: Effect on bronchial smooth muscle contraction in vitro. To study the effect of DHEA on bronchial smooth muscle in vitro, male Hartley guinea-pigs (Charles River Laboratories, Inc., Wilmington, MA) were anaesthetized with sodium pentobarbital (pentobarbital sodium (Abbott Laboratories) (200 mg/kg intraperitoneally). Then trachea and lungs were quickly removed and immersed in oxygenated Krebs-Henseleit solution (K-H) containing (mM) : 115 NaCl, 25 NaHCO3, 1.38 NaH2PO4, 2.5 KCl, 2.46 MgSO4, 1.9 CaCl2, and 5.56 dextrose, aerated with 95% O2 and 5% CO2.
The main bronchi were dissected free of loose connective tissue, under a stereo-microscope (Olympus SZH10), and bronchial rings were obtained and mounted in double jacketed organ baths filled with K-H at 37°C and continuously aerated with a 95% O2 and 5% CO2 gas mixture, which produced a pH of 7.4. The bronchial rings were connected to force displacement transducers (Grass FTO3) for continuous recording of isometric tension on paper polygraph (Gould RS3800) and allowed to equilibrate for 90 minutes. After the equilibration period 1mM acetylcholine was administered and the response monitored.
Bronchial rings were partially contracted with 3·10^-2 M KCl or 10^-5 M acetylcholine (ACh) , then the effect of DHEA was studies by increasing cumulatively its concentration at log intervals from 10^-3 to 10^-4 M and measuring the changes produced in active tension.
A concentration of 3 x 10^-2 M KCl was chosen on the basis of preliminary experiments, in which from concentration-response curves to KCl (10^-2 - 10^-1 M) it was determined that the concentration of KCl eliciting 50% of the maximum response (KCl-EC50) in the experimental set up. […] Similarly, 10^-5 M acetylcholine (ACh) was chosen as the concentration of ACh eliciting 50% of the maximum response.
Since DHEA was dissolved in dimethyl sulfoxide (DMSO), four additional rings were contracted with 3 x 10^-2 M KCl (n=5) or 10^-5 M ACh (n=5) to determine whether this vehicle produced any alteration of the active force. […] The maximum final concentration of DMSO in the organ bath was 0.15%.
Three of the strips used to study DHEA were rinsed with fresh K-H at the end of the experiment, treated with 1 mM acetylcholine, and the response monitored.
In a second set of experiments either a single dose of 10^-5 M ACh was administered or a concentration-response curve to ACh was performed in the presence or absence of 10^-4 M DHEA (administered 15 minutes before ACh). The single dose of ACh was used to measure the rate of tension development, while the concentration-response study was used to evaluate whether DHEA affected sensitivity to ACh.

T1 sequence (P11413 whole entry): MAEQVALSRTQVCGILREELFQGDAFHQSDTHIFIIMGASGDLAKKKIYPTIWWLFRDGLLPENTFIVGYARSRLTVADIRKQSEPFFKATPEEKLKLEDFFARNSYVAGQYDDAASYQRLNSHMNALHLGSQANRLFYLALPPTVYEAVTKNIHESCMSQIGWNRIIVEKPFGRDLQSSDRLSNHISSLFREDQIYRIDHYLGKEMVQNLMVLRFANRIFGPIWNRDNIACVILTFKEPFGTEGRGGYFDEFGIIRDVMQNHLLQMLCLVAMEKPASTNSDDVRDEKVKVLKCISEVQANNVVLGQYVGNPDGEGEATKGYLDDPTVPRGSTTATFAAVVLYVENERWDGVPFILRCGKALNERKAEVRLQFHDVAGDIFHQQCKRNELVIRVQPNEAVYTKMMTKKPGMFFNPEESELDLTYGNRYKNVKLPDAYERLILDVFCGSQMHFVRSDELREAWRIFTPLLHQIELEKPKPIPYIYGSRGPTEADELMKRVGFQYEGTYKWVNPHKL

In the case of `C[C@]12CC[C@H](O)C[C@@H]1CC[C@@H]1[C@@H]2CC[C@]2(C)C(=O)[C@H](Br)C[C@@H]12` [16α-BrEA, 16α-bromoepiandrosterone], in data set [1], the “LDH activity in supernatant” value is reported as “does not increase LDH activity”. In addition, the “stimulation of c-fos protein or mRNA in response to 10% FBS” value in data set [2] is given as “did not reduce”. For the same molecule, the inhibition (in general, the share of the control response that was lost under treatment) at 25 µM in data set [3] (25 µM) was found to be 47 ± 6%. Also, in data set [3] (50 µM), the inhibition at 50 µM stood at 57 ± 9%.

Consider `C[C@]12CC[C@H](O)CC1=CC[C@@H]1[C@@H]2CC[C@]2(C)C(=O)CC[C@@H]12` [DHEA, dehydroepiandrosterone], for which the “rate of tension development in response to 10^-5 ACh” value in data set [4] (10^-4 M DHEA administered 15 minutes before ACh, 2.27±0.82 without DHEA) was found to be 1.85±0.85. For the same molecule, the “relaxation of the ACh-induced contraction” value in data set [4] (10^-4 M DHEA, bronchi partially contracted with 10^-5 M ACh, n=5) was 37.98±4.76%. Besides, the EC50 in data set [4] (Cavia porcellus, read-out: concentration of DHEA which produced 50% relaxation of the KCl-induced contraction) stood at 21.6 µM. Also, the “relaxation of the KCl-induced contraction” value in data set [4] (maximum concentration of DHEA, bronchi partially contracted with 3 x 10^-2 M KCl, after subtraction of the reduction of force due to time-vehicle, n=6) was determined as 76.28±6.96%. Moreover, the “smooth muscle functionality (response to 1 mM acetylcholine after rinsing)” value in data set [4] (three strips rinsed with fresh K-H at the end of the DHEA experiment) was “not altered”.

These data come from patent EP0934745B1, “Use of androsterone derivatives for inhibiting DNA binding of ap-1 and airway smooth muscle proliferation” (CHARLOTTE-MECKLENBURG HOSPITAL doing business as Carolinas …, priority 1998, dated 1999).
